Assay results published in patent publication US8383619B2, “Pharmaceutical compounds” (Astex Therapeutics Limited, priority 2008, dated 2013).

Experiments:
Type in all cases: cell-based
[1] = test system: one hundred cell lines; assay: Anti-proliferative assays against one hundred cell lines; settings: wide range of different cell lines
Method: The anti-proliferative activities of the parent compounds of the pro-drugs of the invention may be determined by measuring the ability of the compounds to inhibition of cell growth in a number of cell lines such as the human colon cancer cell line HCT116. Inhibition of cell growth is measured using the Alamar Blue assay (Nociari, M. M, Shalev, A., Benias, P., Russo, C. Journal of Immunological Methods 1998, 213, 157-167). The method is based on the ability of viable cells to reduce resazurin to its fluorescent product resorufin. For each proliferation assay cells are plated onto 96 well plates and allowed to recover for 16 hours prior to the addition of inhibitor compounds for a further 72 hours. At the end of the incubation period 10% (v/v) Alamar Blue is added and incubated for a further 6 hours prior to determination of fluorescent product at […]. In the case of the non-proliferating cell assay cells are maintained at confluence for 96 hour prior to the addition of inhibitor compounds for a further 72 hours. The number of viable cells is determined by Alamar Blue assay as before. Cell lines may be obtained from the ECACC (European Collection of cell Cultures). […]

[2] = test system: BB64-RCC; assay: Anti-proliferative assay (Oncodesign); settings: BB64-RCC (KIDNEY); read-out: IC50 (Concentration of test compound)
Method: (§1) The anti-proliferative activities of the parent compounds of the pro-drugs of the invention may be determined by measuring the ability of the compounds to inhibition of cell growth in a number of cell lines such as the human colon cancer cell line HCT116. Inhibition of cell growth is measured using the Alamar Blue assay (Nociari, M. M, Shalev, A., Benias, P., Russo, C. Journal of Immunological Methods 1998, 213, 157-167). The method is based on the ability of viable cells to reduce resazurin to its fluorescent product resorufin. For each proliferation assay cells are plated onto 96 well plates and allowed to recover for 16 hours prior to the addition of inhibitor compounds for a further 72 hours. At the end of the incubation period 10% (v/v) Alamar Blue is added and incubated for a further 6 hours prior to determination of fluorescent product at […]. In the case of the non-proliferating cell assay cells are maintained at confluence for 96 hour prior to the addition of inhibitor compounds for a further 72 hours. The number of viable cells is determined by Alamar Blue assay as before. Cell lines may be obtained from the ECACC (European Collection of cell Cultures).
(§2) The parent compound of the pro-drugs of Examples 1 to 25 i.e. (2,4-dihydroxy-5-isopropyl-phenyl)-[5-(4-methyl-piperazin-1-ylmethyl)-1,3-dihydro-isoindol-2-yl]-methanone, in the form of its L-lactate salt, was tested in anti-proliferative assays against one hundred cell lines by Oncodesign (Dijon, France). The IC50 values against each cell line are set out in the table below and the figures in the table refer to nanomolar concentrations. The compounds were tested up to a concentration of 10,000 nanomolar.

[3] = test system: A-375; assay: Anti-proliferative assay (Oncodesign); settings: Homo sapiens; A-375 (SKIN); read-out: IC50 (Concentration of test compound)
Method: as §1, §2

[4] = test system: LB11-SCLC/OC1; assay: Anti-proliferative assay (Oncodesign); settings: LB11-SCLC/OC1 (LUNG); read-out: IC50 (Concentration of test compound)
Method: as §1, §2

[5] = test system: LB61-NSCLC; assay: Anti-proliferative assay (Oncodesign); settings: LB61-NSCLC (LUNG); read-out: IC50 (Concentration of test compound)
Method: as §1, §2

[6] = test system: SK-MEL-5; assay: Anti-proliferative assay (Oncodesign); settings: Homo sapiens; SK-MEL-5 (SKIN); read-out: IC50 (Concentration of test compound)
Method: as §1, §2

[7] = test system: MC90; assay: Anti-proliferative assay (Oncodesign); settings: MC90 (BLOOD); read-out: IC50 (Concentration of test compound)
Method: as §1, §2

[8] = test system: Calu-1; assay: Anti-proliferative assay (Oncodesign); settings: Homo sapiens; Calu-1 (LUNG); read-out: IC50 (Concentration of test compound)
Method: as §1, §2

[9] = test system: SW-872; assay: Anti-proliferative assay (Oncodesign); settings: Homo sapiens, SW872; SW-872 (CONNECTIVE TISSUE); read-out: IC50 (Concentration of test compound)
Method: as §1, §2

[10] = test system: IGROV-1/CDDP; assay: Anti-proliferative assay (Oncodesign); settings: Homo sapiens; IGROV-1/CDDP (OVARY); read-out: IC50 (Concentration of test compound)
Method: as §1, §2

[11] = test system: UZG4-MEL; assay: Anti-proliferative assay (Oncodesign); settings: UZG4-MEL (SKIN); read-out: IC50 (Concentration of test compound)
Method: as §1, §2

[12] = test system: CMEL-5; assay: Anti-proliferative assay (Oncodesign); settings: CMEL-5 (SKIN); read-out: IC50 (Concentration of test compound)
Method: as §1, §2

[13] = test system: NIH: OVCAR-3; assay: Anti-proliferative assay (Oncodesign); settings: Homo sapiens; NIH: OVCAR-3 (OVARY); read-out: IC50 (Concentration of test compound)
Method: as §1, §2

[14] = test system: NCI-H460; assay: Anti-proliferative assay (Oncodesign); settings: Homo sapiens; NCI-H460 (LUNG); read-out: IC50 (Concentration of test compound)
Method: as §1, §2

[15] = test system: SUP-B15; assay: Anti-proliferative assay (Oncodesign); settings: Homo sapiens; SUP-B15 (BLOOD); read-out: IC50 (Concentration of test compound)
Method: as §1, §2

[16] = test system: A-431; assay: Anti-proliferative assay (Oncodesign); settings: Homo sapiens; A-431 (SKIN); read-out: IC50 (Concentration of test compound)
Method: as §1, §2

[17] = test system: DLD-1; assay: Anti-proliferative assay (Oncodesign); settings: Homo sapiens; DLD-1 (COLON); read-out: IC50 (Concentration of test compound)
Method: as §1, §2

[18] = test system: LB1047-RCC; assay: Anti-proliferative assay (Oncodesign); settings: LB1047-RCC (KIDNEY); read-out: IC50 (Concentration of test compound)
Method: as §1, §2

[19] = test system: Capan-2; assay: Anti-proliferative assay (Oncodesign); settings: Homo sapiens; Capan-2 (PANCREAS); read-out: IC50 (Concentration of test compound)
Method: as §1, §2

[20] = test system: MCF-7; assay: Anti-proliferative assay (Oncodesign); settings: Homo sapiens, MCF7; MCF-7 (BREAST); read-out: IC50 (Concentration of test compound)
Method: as §1, §2

[21] = test system: NCI-H69; assay: Anti-proliferative assay (Oncodesign); settings: Homo sapiens; NCI-H69 (LUNG); read-out: IC50 (Concentration of test compound)
Method: as §1, §2

[22] = test system: Malme-3M; assay: Anti-proliferative assay (Oncodesign); settings: Homo sapiens; Malme-3M (SKIN); read-out: IC50 (Concentration of test compound)
Method: as §1, §2

[23] = test system: K-562/Gleevec; assay: Anti-proliferative assay (Oncodesign); settings: Homo sapiens, K562; K-562/Gleevec (BLOOD); read-out: IC50 (Concentration of test compound)
Method: as §1, §2

[24] = test system: Calu-6; assay: Anti-proliferative assay (Oncodesign); settings: Homo sapiens; Calu-6 (LUNG); read-out: IC50 (Concentration of test compound)
Method: as §1, §2

[25] = test system: CGL-9; assay: Anti-proliferative assay (Oncodesign); settings: CGL-9 (BRAIN); read-out: IC50 (Concentration of test compound)
Method: as §1, §2

[26] = test system: LB771-HNSCC; assay: Anti-proliferative assay (Oncodesign); settings: LB771-HNSCC (HEAD AND NECK); read-out: IC50 (Concentration of test compound)
Method: as §1, §2

In the case of `CC(C)c1cc(C(=O)N2Cc3ccc(CN4CCN(C)CC4)cc3C2)c(O)cc1O` [(2,4-dihydroxy-5-isopropyl-phenyl)-[5-(4-methyl-piperazin-1-ylmethyl)-1,3-dihydro-isoindol-2-yl]-methanone], the anti-proliferative activity [1] is reported as “potent anti-proliferative activity”, the IC50 [2] is reported as over 10000 nM and the IC50 [3] is reported as 1480 nM. For the same molecule, the IC50 [4] was 17 nM, the IC50 [5] was over 10000 nM and the IC50 [6] was 185 nM. For the same molecule, the IC50 [7] was 93 nM, the IC50 [8] was 270 nM and the IC50 [9] was over 10000 nM. It also gave an IC50 [10] of 147 nM, an IC50 [11] of 180 nM and an IC50 [12] of 130 nM. The IC50 [13] was 45 nM, the IC50 [14] was 118 nM and the IC50 [15] was 37 nM. It also gave an IC50 [16] of 3800 nM, an IC50 [17] of 56 nM and an IC50 [18] of 58 nM. The IC50 [19] was 144 nM, the IC50 [20] was over 10000 nM and the IC50 [21] was 162 nM. The IC50 [22] was 157 nM, the IC50 [23] was 175 nM and the IC50 [24] was 32 nM. It also gave an IC50 [25] of 161 nM and an IC50 [26] of 391 nM.
